Where “and” joins values, the source holds several entries; their conditions need not be identical. Equal values may be shown once. Read-outs that look alike come from different tables or passages of the source.

Data set [1] relates to HCV RNA in stably HCV RNA-replicating cell line AVA5. Briefly: Primary in vitro anti-HCV screen: intracellular HCV RNA levels in AVA5 cells (branched DNA assay). It counts as cell-based, Hepatitis C virus. As to conditions: for HCV % Control / HCV Copies/ml: AVA5, duplicate cultures; for effect on HCV RNA (treatment controls, in words): at the control concentrations used. Here is the method:
Primary in vitro anti-HCV screen. The antiviral activity of test compounds were assayed in the stably HCV RNA-replicating cell line, AVA5, derived by transfection of the human hepatoblastoma cell line, Huh7 (Blight, et al., 2000, Science 290: 1972). The test compounds were added to dividing cultures once daily for three days. The media was changed with each addition of the compounds. […] Intracellular HCV RNA levels and cytotoxicity are assessed 24 hours after the last dose of compound.
(§1) Assays were conducted using a single dose of test compound. Duplicate cultures for HCV RNA levels (on 48-well plates) and triplicate cultures for cytotoxicity (on 96-well plates) are used.
(§2) Intracellular HCV RNA levels were measured using a commercial assay (Veresant®, Bayer Diagnostics, Inc. Ross, et al. (2002) J. Virol. Meth. 101:159–168, Quantitation of hepatitic C virus RNA by third generation branched DNA-based signal amplification assay). Cytotoxicity was measured using an established neutral red dye uptake assay (Korba, B. E. and J. L. Gerin. 1992. Use of a standardized cell culture assay to determine activities of nucleoside analogs against hepatitis B virus relication. Antivir. Res. 19:55–70). HCV RNA levels in the treated cultures are expressed as a percentage of the mean levels of RNA detected in untreated cultures. A level of 30% or less, HCV RNA relative to control cultures may be considered to be a positive antiviral effect. A level of 50% or less, neutral red dye uptake relative to control cultures may be considered to be a cytotoxic effect.

A short description of data set [2]: Secondary dose-response assay: cytotoxicity (CC50). Particulars: human. The method, then: (§3) Dividing cultures of AVA5 cells are treated once daily for three days (media is changed with each addition of compound) with 4 concentrations of test compound (2 cultures per concentration). […] Intracellular HCV RNA levels and cytotoxicity are assessed 24 hours following the last treatment as described for the primary assays. The 50% and 90% effective antiviral concentrations (EC50, EC90) and the 50% cytotoxic concentrations (CC50) are calculated and used to generate Selectivity Indexes (S.I., CC50/EC50). An S.I of 10, or greater, may be considered to be a selective antiviral effect.
(§4) The values presented in Table 6 were calculated by linear regression analysis using data from all treated cultures. The standard deviation was calculated using the error of regression generated from the linear regression analysis.

Data set [3] concerns HCV replicons in AVA5 cell cultures. Briefly: Secondary in vitro anti-HCV dose-response assay: intracellular HCV RNA. As to conditions: for Intracellular HCV RNA Levels: normalized to β-actin RNA. The arrangement: Intracellular HCV RNA Levels: dose or concentration left out as unconfirmed. Here is the method: as §3, §4
Analysis of intracellular HCV RNA was performed 24 hours following the final treatment. A total of […] were treated a each concentration for each compound. HCV RNA levels were normalized to the level of β-actin RNA in each individual sample.

A short description of data set [4]: Primary screen cytotoxicity: neutral red dye uptake. The format is cell-based, human. As to conditions: human; toxicity control, no antiviral activity; read-out: approximate CC90. Here is the method:
(§5) Primary in vitro anti-HCV screen. The antiviral activity of test compounds were assayed in the stably HCV RNA-replicating cell line, AVA5, derived by transfection of the human hepatoblastoma cell line, Huh7 (Blight, et al., 2000, Science 290: 1972). The test compounds were added to dividing cultures once daily for three days. The media was changed with each addition of the compounds. Cultures generally start the assay at 30–50% confluence and reach confluence during the last day of treatment.
as §1, §2

The test system of data set [5] is AVA5 cell line (derived from human hepatoblastoma cell line Huh7). The data set is described as above. The format is cell-based. Particulars: for Neutral Red % Control / Neutral Red O.D.: AVA5. Here is the method: as §5, §1, §2
For data set [6], the system named is HCV RNA-replicating cell line AVA5. Briefly: Normalized Viral Assay. It counts as cell-based, Hepatitis C virus. The method, then:
as §5

The next data set relates to AVA5 cells. The data set can be described thus: Secondary dose-response assay: cytotoxicity (CC50). The method, then:
as §3, §4

For data set [7], the system named is AVA5 cell line. The data set can be described thus: MTS Cell Viability.
Data set [8] relates to AVA5 cell line. Briefly: ATP Cell Viability.
The mark [9] stands for this setting: AVA5, HCV RNA, linear regression.
[10] abbreviates: AVA5, three days treatment, linear regression.
Where [11] appears, read: AVA5, values for α-interferon in IU/ml.

For `NC(=O)c1ncn([C@@H]2O[C@H](CO)[C@@H](O)[C@H]2O)n1` [Ribavirin, ribavirin, reference compound], in data set [1] (100 μM), the “HCV % Control” value is 13 % Control and 9 % Control; the “HCV Copies/ml” value was 180813 Copies/ml and 115331 Copies/ml. Further, the “effect on HCV RNA (treatment controls, in words)” value in data set [1] is “induced loss of HCV RNA”. Besides, in [2], the midpoint of cytotoxicity, the CC50 at 3 days, lay at 54 ± 2.4 µM. The “Intracellular HCV RNA Levels” value in [3] (10) is recorded as 1379495 ± 69125 genomic copies/cell. In addition, the “Intracellular HCV RNA Levels” value in data set [3] (30) was found to be 640505 ± 29715 genomic copies/cell. The “Intracellular HCV RNA Levels” value in data set [3] (100) was found to be 250445 ± 5015 genomic copies/cell. In [3] (Hepatitis C virus, Ava5), it took 29 ± 2.5 µM to reach a half-maximal effect (EC50) and the EC90 was 140 ± 11 µM. For the same compound, the “S.I. (CC50/EC90)” value in [3] (selectivity index, AVA5) is 1.9. In [4], the CC90 at 3 days is about 100 µM. In addition, in data set [5] (100 μM), the “Neutral Red % Control” value is 18 % Control and 17 % Control; the “Neutral Red O.D.” value was 0.394 O.D. and 0.378 O.D. Besides, in data set [5] (compared with the loss of HCV RNA), the “effect on cell viability (treatment control, in words)” value was “reduction in cell viability was nearly equivalent”.
With `Cc1cc(C)cc(Sc2c(Sc3cccc(Cl)c3)c3ccccc3oc2=O)c1` [compound 468], the “Normalized Viral Assay” value in data set [6] (1 μM) turned out to be 72.14; in data set [6] (5 μM) it was 35.09; in data set [6] (10 μM) it was 18.06. For the same compound, in the data set on AVA5 cells, the CC50 is over 300 µM. Besides, in data set [3], the “S.I. (CC50/EC90)” value is over 250. The “Intracellular HCV RNA Levels” value in [3] (10) is 1317765 ± 55645 genomic copies/cell; in [3] (30), 473805 ± 21625 genomic copies/cell; in data set [3] (100), 194410 ± 7620 genomic copies/cell; in data set [3] (300), 56535 ± 8005 genomic copies/cell. In [3] (setting [9]), this compound came in with an EC50 of 1.2 ± 0.1 µM. The same compound yielded a 90% effect concentration (EC90) in [3] (setting [9]) of 8.3 ± 0.6 µM.
Consider `O=c1cc(Sc2c(Cl)cccc2Cl)c2cc(F)ccc2o1` [compound 902], for which the results for the “MTS Cell Viability” value in the data set with AVA5 cell line [7] (1 μM), in the data set with AVA5 cell line [7] (5 μM) and in the data set on AVA5 cell line [7] (10 μM) were 116.05, 86.70 and 84.52, respectively. For the same compound, in data set [1] (10 μM, HCV RNA as percentage of untreated cultures, listed as VQ_902), the “HCV % Control” value was 9 % Control and 7 % Control. Moreover, the “HCV Copies/ml” value in data set [1] (10 μM, once daily for three days, listed as VQ_902) was 124712 Copies/ml and 92446 Copies/ml. For the same compound, the “Normalized Viral Assay” value is on record as 41.92 in [6] (1 μM), 12.03 in data set [6] (5 μM) and 5.61 in data set [6] (10 μM). For the same compound, the CC50 with AVA5 cells (setting [10]) was over 300 µM. The “ATP Cell Viability” value in the data set on AVA5 cell line [8] (1 μM) is reported as 97.96; in the data set on AVA5 cell line [8] (5 μM), 101.74; in the data set with AVA5 cell line [8] (10 μM), 62.95. The “Intracellular HCV RNA Levels” value was found to be 919880 ± 44000 genomic copies/cell in data set [3] (10), 332975 ± 6745 genomic copies/cell in data set [3] (30), 91645 ± 7385 genomic copies/cell in data set [3] (100) and 12940 ± 5640 genomic copies/cell in data set [3] (300). The same compound displayed an EC50 in data set [3] (setting [9]) of 0.491 ± 0.024 µM. This compound registered an EC90 in data set [3] (setting [9]) of 5.2 ± 0.6 µM. In addition, the “S.I. (CC50/EC90)” value in data set [3] (selectivity index, AVA5) is listed as over 611. Moreover, in [5] (10 μM, dye uptake relative to untreated cultures, listed as VQ_902), the “Neutral Red % Control” value was 95 % Control and 100 % Control. In addition, the “Neutral Red O.D.” value in data set [5] (10 μM, listed as VQ_902) was 2.122 O.D. and 2.228 O.D.
Take `O=c1cc(Sc2ccc(F)cc2F)c2cc(F)ccc2o1` [compound 910]: the “MTS Cell Viability” value was determined as 105.74 in the data set on AVA5 cell line [7] (1 μM), 92.64 in the data set on AVA5 cell line [7] (5 μM) and 79.43 with AVA5 cell line [7] (10 μM). Further, in data set [1] (10 μM, HCV RNA as percentage of untreated cultures, listed as VQ_910), the “HCV % Control” value was 20 % Control and 18 % Control. Further, the “HCV Copies/ml” value in data set [1] (10 μM, once daily for three days, listed as VQ_910) was 266217 Copies/ml and 246717 Copies/ml. Besides, the “Normalized Viral Assay” value amounted to 32.93 in [6] (1 μM), 9.51 in data set [6] (5 μM) and 3.41 in [6] (10 μM). Further, the CC50 in the data set on AVA5 cells (setting [10]) was over 300 µM. In addition, the “ATP Cell Viability” value in the data set with AVA5 cell line [8] (1 μM) was 115.34; with AVA5 cell line [8] (5 μM) it was 97.48; in the data set on AVA5 cell line [8] (10 μM), 84.78. The “Intracellular HCV RNA Levels” value in data set [3] (10) is listed as 1176970 ± 27620 genomic copies/cell; in data set [3] (30) it was 494605 ± 6235 genomic copies/cell; in data set [3] (100), 163575 ± 6325 genomic copies/cell; in data set [3] (300) it was 58165 ± 7635 genomic copies/cell. In data set [3] (setting [9]), this compound gave an EC50 of 1.4 ± 0.1 µM. In addition, the EC90 in [3] (setting [9]) was 12 ± 1.1 µM. Besides, in data set [3] (selectivity index, AVA5), the “S.I. (CC50/EC90)” value was over 214. In data set [5] (10 μM, dye uptake relative to untreated cultures, listed as VQ_910), the “Neutral Red % Control” value was 99 % Control and 103 % Control. In addition, in data set [5] (10 μM, listed as VQ_910), the “Neutral Red O.D.” value was 2.214 O.D. and 2.293 O.D.
As for α-interferon, in [1] (10 IU/ml, listed as rHu α-IFN), the “HCV % Control” value is 5 % Control and 6 % Control; the “HCV Copies/ml” value is 71460 Copies/ml and 85467 Copies/ml. The “effect on HCV RNA (treatment controls, in words)” value in data set [1] is reported as “induced significant depressions of HCV RNA replication”. Also, in data set [1] (positive antiviral control, no cytotoxicity), the “approximate EC90” value was about 10 IU/ml. Also, the CC50 with AVA5 cells (setting [11]) is on record as >10000^1,2 IU/ml. The “Intracellular HCV RNA Levels” value in data set [3] (1.0 IU/ml) is 1169765 ± 37135 genomic copies/cell. Besides, the “Intracellular HCV RNA Levels” value in data set [3] (3.0 IU/ml) was 329605 ± 26035 genomic copies/cell. Moreover, the “Intracellular HCV RNA Levels” value in data set [3] (10 IU/ml) is 103060 ± 14470 genomic copies/cell. Moreover, in [3] (setting [11]), the EC50 was 1.8 ± 0.2^1 IU/ml and the EC90 was 8.2 ± 0.6^1 IU/ml. Moreover, in data set [3] (selectivity index, AVA5), the “S.I. (CC50/EC90)” value is over 5556. Also, in [5] (10 IU/ml, listed as rHu α-IFN), the “Neutral Red % Control” value is 99 % Control and 103 % Control; the “Neutral Red O.D.” value is 2.217 O.D. and 2.291 O.D.
